According to patent US11053234B2 (GlaxoSmithKline Intellectual Property Development Limited, priority 2016, dated 2021):
Counter-ions that a name gives are not always drawn.

Target: T1, haematopoietic prostaglandin D synthase (H-PGDS) (Homo sapiens, UniProt O60760)
T1 construct: Full length human H-PGDS cDNA (Invitrogen Ultimate ORF 10H13026) was amplified by PCR; 6-His (N); TEV protease cleavage site (N); made in house; host or cells: E. coli BL21 (DE3*), vector pET22b+
Test: H-PGDS RapidFire high throughput mass spectrometry assay (conversion of PGH2 to PGD2)
Format: biochemical
Settings: 10 nM H-PGDS, PGH2 formed in situ by COX-2 from arachidonic acid; read-out: Potency Range (mean pIC50) (converted)
Method in brief: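 RapidFire SPE–MS read-out calculated percent conversion from relative PGD2 and PGF2α (substrate surrogate) levels. Recombinant full-length human H-PGDS (His-tag, E. coli) turned over PGH2, produced in situ at ˜10 μM by human COX-2 (FLAG-tag, Sf9 cells) acting on arachidonic acid.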

T1 sequence (O60760 whole entry): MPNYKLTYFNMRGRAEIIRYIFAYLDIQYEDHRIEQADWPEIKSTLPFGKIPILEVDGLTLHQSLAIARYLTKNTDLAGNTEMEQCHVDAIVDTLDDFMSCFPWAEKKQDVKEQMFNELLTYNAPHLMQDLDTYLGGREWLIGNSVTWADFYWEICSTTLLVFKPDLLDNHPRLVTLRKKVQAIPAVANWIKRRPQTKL

SMILES | IC50 [nM]
CC(C)(O)CO[C@H]1CC[C@H](NC(=O)N2CC(Oc3cccc4scnc34)C2)CC1 [Example 106, 3-(Benzo[d]thiazol-4-yloxy)-N-((trans)-4-(2-hydroxy-2-methylpropoxy)cyclohexyl)azetidine-1-carboxamide] | 10 to 79.4
Cc1n[nH]c(NC(=O)N2CC(Oc3cccc4scnc34)C2)c1C#N [Example 329, 3-(Benzo[d]thiazol-4-yloxy)-N-(4-cyano-3-methyl-1H-pyrazol-5-yl)azetidine-1-carboxamide] | 100 to 1000
O=C(NC1CN(c2ccnc(Cl)n2)C1)N1CC(Oc2cccc3scnc23)C1 [Example 60, 3-(Benzo[d]thiazol-4-yloxy)-N-(1-(2-chloropyrimidin-4-yl)azetidin-3-yl)azetidine-1-carboxamide] | 10 to 79.4
O=C(NC1CN(c2ncc(F)cn2)C1)[C@H]1C[C@H](Oc2cccc3scnc23)C1 [Example 78, (trans)-3-(Benzo[d]thiazol-4-yloxy)-N-(1-(5-fluoropyrimidin-2-yl)azetidin-3-yl)cyclobutanecarboxamide] | 10 to 79.4
CC(C)Nc1nccc(N2CC(NC(=O)[C@H]3C[C@H](Oc4cccc5scnc45)C3)C2)n1 [Example 70, (trans)-3-(Benzo[d]thiazol-4-yloxy)-N-(1-(2-(isopropylamino)pyrimidin-4-yl)azetidin-3-yl)cyclobutanecarboxamide] | 100 to 1000
COc1ccc(F)cc1O[C@H]1C[C@H](C(=O)NC2CCN(c3cc(C#N)ccn3)C2)C1 (mixture of isomers) [Example 145, Racemic (trans)-N-(1-(4-Cyanopyridin-2-yl)pyrrolidin-3-yl)-3-(5-fluoro-2-methoxyphenoxy)cyclobutanecarboxamide] | 10 to 79.4
CC(C)(O)[C@H]1C[C@H](NC(=O)[C@H]2C[C@H](Oc3cc(F)cc4cccnc34)C2)C1 [Example 293, (trans)-3-((6-Fluoroquinolin-8-yl)oxy)-N-((trans)-3-(2-hydroxypropan-2-yl)cyclobutyl)cyclobutanecarboxamide] | 100 to 1000
O=C(Nc1nncs1)[C@H]1C[C@H](Oc2cccc3cccnc23)C1 [Example 216, (trans)-3-(Quinolin-8-yloxy)-N-(1,3,4-thiadiazol-2-yl)cyclobutanecarboxamide] | 10 to 79.4
O=C1CC(NC(=O)[C@H]2C[C@H](Oc3cc(F)ccc3OC(F)F)C2)c2ccccc2N1 (mixture of isomers) [Example 25, Racemic (trans)-3-(2-(Difluoromethoxy)-5-fluorophenoxy)-N-(2-oxo-1,2,3,4-tetrahydroquinolin-4-yl)cyclobutanecarboxamide] | 10 to 79.4
O=C(Nc1nccs1)[C@H]1C[C@H](Oc2cccc3[nH]cnc23)C1 [Example 297, (trans)-3-((1H-Benzo[d]imidazol-4-yl)oxy)-N-(thiazol-2-yl)cyclobutanecarboxamide, di-trifluoroacetic acid salt] | 100 to 1000
O=C(Nc1nccs1)[C@H]1C[C@H](Oc2ccc(F)c3cccnc23)C1 [Example 291, (trans)-3-((5-Fluoroquinolin-8-yl)oxy)-N-(thiazol-2-yl)cyclobutanecarboxamide, trifluoroacetic acid salt] | 100 to 1000
CC(C)(O)[C@H]1CC[C@H](NC(=O)N2CC(Oc3cccc4cccnc34)C2)CC1 [Example 185, N-((trans)-4-(2-Hydroxypropan-2-yl)cyclohexyl)-3-(quinolin-8-yloxy)azetidine-1-carboxamide] | 10 to 79.4
O=C(NC1CN(c2ncccn2)C1)[C@H]1C[C@H](Oc2cccc3scnc23)C1 [Example 80, (trans)-3-(Benzo[d]thiazol-4-yloxy)-N-(1-(pyrimidin-2-yl)azetidin-3-yl)cyclobutanecarboxamide] | 10 to 79.4
CC(C)(C)c1nsc(NC(=O)N2CC(Oc3cccc4scnc34)C2)n1 [Example 339] | 10 to 79.4
COc1ccc(F)cc1O[C@H]1C[C@H](C(=O)NC2CC(=O)Nc3ccccc32)C1 (mixture of isomers) [Example 153, Racemic (trans)-3-(5-Fluoro-2-methoxyphenoxy)-N-(2-oxo-1,2,3,4-tetrahydroquinolin-4-yl)cyclobutanecarboxamide] | 10 to 79.4
CC(=O)c1coc(N2CC(NC(=O)[C@H]3C[C@H](Oc4cccc5scnc45)C3)C2)n1 [Example 47, (trans)-N-(1-(4-Acetyloxazol-2-yl)azetidin-3-yl)-3-(benzo[d]thiazol-4-yloxy)cyclobutanecarboxamide] | 100 to 1000
COc1ccc(F)cc1O[C@H]1C[C@H](C(=O)NC2CN(c3ncc(C#N)s3)C2)C1 [Example 147, (trans)-N-(1-(5-Cyanothiazol-2-yl)azetidin-3-yl)-3-(5-fluoro-2-methoxyphenoxy)cyclobutanecarboxamide] | 10 to 79.4
O=C1CC(NC(=O)[C@H]2C[C@H](Oc3cccc4scnc34)C2)c2ccccc2N1 (mixture of isomers) [Example 84, Racemic (trans)-3-(Benzo[d]thiazol-4-yloxy)-N-(2-oxo-1,2,3,4-tetrahydroquinolin-4-yl)cyclobutanecarboxamide] | 10 to 79.4
Cc1nc2c(OC3CN(C(=O)N[C@H]4CC[C@H](C(C)(C)O)CC4)C3)cccc2s1 [Example 300, N-((trans)-4-(2-Hydroxypropan-2-yl)cyclohexyl)-3-((2-methylbenzo[d]thiazol-4-yl)oxy)azetidine-1-carboxamide] | 1260 to 2000
Cc1nnc(NC(=O)N2CC(Oc3cccc4scnc34)C2)s1 [Example 321, 3-(Benzo[d]thiazol-4-yloxy)-N-(5-methyl-1,3,4-thiadiazol-2-yl)azetidine-1-carboxamide] | 10 to 79.4
CC(C)(O)[C@H]1CC[C@H](NC(=O)[C@H]2C[C@H](Oc3cccc4c3OCC4)C2)CC1 [Example 268, (trans)-3-((2,3-Dihydrobenzofuran-7-yl)oxy)-N-((trans)-4-(2-hydroxypropan-2-yl)cyclohexyl)cyclobutanecarboxamide] | 10 to 79.4
O=C(N[C@H]1CC[C@@H](NC(CO)C(F)(F)F)CC1)N1CC(Oc2cc(F)cc3scnc23)C1 (mixture of isomers) [Example 124, Racemic 3-((6-Fluorobenzo[d]thiazol-4-yl)oxy)-N-((cis)-4-((1,1,1-trifluoro-3-hydroxypropan-2-yl)amino)cyclohexyl)azetidine-1-carboxamide] | 10 to 79.4
O=C(Nc1ccc(N2CCOCC2)cc1)[C@H]1C[C@H](Oc2cccc3scnc23)C1 [Example 243, (trans)-3-(Benzo[d]thiazol-4-yloxy)-N-(4-morpholinophenyl)cyclobutanecarboxamide] | 10 to 79.4
CC(C)(O)[C@@H]1CC[C@@H](NC(=O)N2CC(Oc3cc(F)cc4scnc34)C2)CO1 (racemic) [Example 127, Racemic 3-((6-Fluorobenzo[d]thiazol-4-yl)oxy)-N-((trans)-6-(2-hydroxypropan-2-yl)tetrahydro-2H-pyran-3-yl)azetidine-1-carboxamide] | 10 to 79.4
O=C(Nc1nc(C(F)(F)F)cs1)[C@H]1C[C@H](Oc2cccc3cccnc23)C1 [Example 201, (trans)-3-(Quinolin-8-yloxy)-N-(4-(trifluoromethyl)thiazol-2-yl)cyclobutanecarboxamide] | 10 to 79.4
Cn1nnnc1NC(=O)[C@H]1C[C@H](Oc2cc(F)ccc2OC(F)F)C1 [Example 3, (trans)-3-(2-(Difluoromethoxy)-5-fluorophenoxy)-N-(1-methyl-1H-tetrazol-5-yl)cyclobutanecarboxamide] | 100 to 1000
